Laboratory results published in patent US20190152992A1, “BENZODIOXANE DERIVATIVES AND THEIR PHARMACEUTICAL USE” (Orion Corporation, priority 2016, published 2019).
Structures can show the parent of a compound that is named as a salt.

Assays:
human alpha2A receptors = molecular target: T1, human alpha2A receptors (Homo sapiens, UniProt P08913); experiment: cell-based
T1 sequence (P08913 1-465): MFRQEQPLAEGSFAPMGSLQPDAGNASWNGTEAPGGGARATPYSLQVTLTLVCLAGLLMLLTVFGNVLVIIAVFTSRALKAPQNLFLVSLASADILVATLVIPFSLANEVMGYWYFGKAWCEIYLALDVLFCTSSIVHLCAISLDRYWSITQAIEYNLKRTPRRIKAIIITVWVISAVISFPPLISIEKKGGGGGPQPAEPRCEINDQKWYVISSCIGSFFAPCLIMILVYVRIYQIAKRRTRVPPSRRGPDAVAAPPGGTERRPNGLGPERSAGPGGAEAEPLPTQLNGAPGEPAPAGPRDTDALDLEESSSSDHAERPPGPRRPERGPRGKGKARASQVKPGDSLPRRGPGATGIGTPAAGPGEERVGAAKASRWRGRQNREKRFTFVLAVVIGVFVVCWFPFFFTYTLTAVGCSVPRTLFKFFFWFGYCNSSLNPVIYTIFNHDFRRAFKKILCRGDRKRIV

human alpha2C receptors = molecular target: T2, human alpha2C receptors (Homo sapiens, UniProt P18825); experiment: Determination of alpha2C antagonistic activity in vitro (FLIPR calcium assay); conditions: for Kb: Alpha 2C Adrenaline Kb, Kb calculated from IC50 with the Cheng-Prusoff equation, adrenaline as agonist, CHO cells, human alpha2C
T2 sequence (P18825 1-462): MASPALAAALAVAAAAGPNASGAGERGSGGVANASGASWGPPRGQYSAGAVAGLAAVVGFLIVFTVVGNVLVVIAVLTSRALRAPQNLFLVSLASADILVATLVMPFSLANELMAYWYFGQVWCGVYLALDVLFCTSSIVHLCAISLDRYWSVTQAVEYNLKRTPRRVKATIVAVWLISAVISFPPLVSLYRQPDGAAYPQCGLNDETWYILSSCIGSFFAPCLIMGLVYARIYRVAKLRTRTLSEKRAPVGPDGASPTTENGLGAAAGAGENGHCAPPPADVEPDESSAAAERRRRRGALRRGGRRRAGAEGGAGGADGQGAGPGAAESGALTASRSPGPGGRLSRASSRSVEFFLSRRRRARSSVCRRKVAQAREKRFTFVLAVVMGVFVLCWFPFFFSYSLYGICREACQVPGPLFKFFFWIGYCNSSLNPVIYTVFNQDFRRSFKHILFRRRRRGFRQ
Method: Experiment 1: Determination of alpha2A and alpha2C Antagonistic Activity In Vitro
The growth medium was removed and the cells were incubated with the test compounds and the FLIPR Calcium 6 Assay reagent (Molecular Devices, CA, USA) for 2 h at 37° C. in dark. The test compounds (concentrations in cells 100 pM-10 μM) were dissolved in Probenecid-Ringer consisting of 150 mM NaCl, 3 mM KCl, 1.2 mM MgCl2, 1 mM CaCl2, 5 mM glucose, 20 mM HEPES and 2.5 mM probenecid (pH 7.4 adjusted with 1.0 M NaOH). […] All experiments were performed at 37° C. For agonism measurements the test compounds dissolved in Probenecid-Ringer were applied by FLIPR Tetra at 15 s time point. In order to determine antagonism, the cells were stimulated either with 100 nM adrenaline or noradrenaline and the test compounds were added to the cells 2 h before the experiment with the FLIPR Calcium 6 Assay reagent. […] Typically, there were four replicates at each concentration and six different dose levels. […] The minimum fluorescence value subtracted from the maximum value for each well was used in the calculations. ScreenWorks version 4.0 software was used for analyzing the results. Fitting of the antagonist dose-response results was performed with the free Hill equation and the IC50 values were fitted with IDBS XE software using model 200: y=(A+(B/(1+((x/C)̂D)))), where A is the curve maximum, B the curve minimum and C equals the EC50 value. D is slope factor (Hill). Kb was calculated with the Cheng-Prusoff equation Kb=A/((B/C)+1), where A is the IC50 of antagonist, B the concentration of agonist and C the EC50 of the agonist.

SMILES: COc1cccc2c1C(=O)N([C@H]1CCCN(C[C@H]3COc4ccccc4O3)C1)C2=O [example 65, 2-((S)-1-(((S)-2,3-Dihydrobenzo[b][1,4]dioxin-2-yl)methyl)piperidin-3-yl)-4-methoxyisoindoline-1,3-dione]
- IC50 (human alpha2A receptors): > 10000 nM
- Kb (human alpha2A receptors): > 449 nM
- IC50 (human alpha2C receptors): < 0.1 nM
- Kb (human alpha2C receptors): < 0.01 nM

SMILES: O=C1C(=O)N([C@H]2CCCN(C[C@H]3COc4ccccc4O3)C2)CC1c1ccccc1 (stereo partly drawn) [example 38, 1-((S)-1-(((S)-2,3-Dihydrobenzo[b][1,4]dioxin-2-yl)methyl)piperidin-3-yl)-4-phenylpyrrolidine-2,3-dione]
- IC50 (human alpha2A receptors): > 10000 nM
- Kb (human alpha2A receptors): > 449 nM
- IC50 (human alpha2C receptors): 1.54 nM
- Kb (human alpha2C receptors): 0.153 nM

SMILES: c1ccc2c(c1)OC[C@H](CN1CCC[C@H](n3nnc4ccccc43)C1)O2 [example 145, 1-((S)-1-(((S)-2,3-Dihydrobenzo[b][1,4]dioxin-2-yl)methyl)piperidin-3-yl)-1H-benzo[d][1,2,3]triazole]
- IC50 (human alpha2A receptors): 2780 nM
- Kb (human alpha2A receptors): 125 nM
- IC50 (human alpha2C receptors): 0.85 nM
- Kb (human alpha2C receptors): 0.09 nM

SMILES: CCC1(CC)OC(=O)N([C@H]2CCCN(C[C@H]3COc4ccccc4O3)C2)C1=O [example 5, 3-((S)-1-(((S)-2,3-Dihydrobenzo[b][1,4]dioxin-2-yl)methyl)piperidin-3-yl)-5,5-diethyloxazolidine-2,4-dione]
- IC50 (human alpha2A receptors): 1300 nM
- Kb (human alpha2A receptors): 58 nM
- IC50 (human alpha2C receptors): 0.13 nM
- Kb (human alpha2C receptors): 0.01 nM

SMILES: COc1ccc2c(c1)CN([C@H]1CCCN(C[C@H]3COc4ccccc4O3)C1)C2=O [example 69, 2-((S)-1-(((S)-2,3-Dihydrobenzo[b][1,4]dioxin-2-yl)methyl)piperidin-3-yl)-5-methoxyisoindolin-1-one]
- IC50 (human alpha2A receptors): > 10000 nM
- Kb (human alpha2A receptors): > 449 nM
- IC50 (human alpha2C receptors): 0.89 nM
- Kb (human alpha2C receptors): 0.09 nM

SMILES: O=C1c2cccc(Cl)c2C(=O)N1[C@H]1CCCN(C[C@H]2COc3ccccc3O2)C1 [example 64, 4-Chloro-2-((S)-1-(((S)-2,3-dihydrobenzo[b][1,4]dioxin-2-yl)methyl)piperidin-3-yl)isoindoline-1,3-dione hydrochloride]
- IC50 (human alpha2A receptors): > 10000 nM
- Kb (human alpha2A receptors): > 449 nM
- IC50 (human alpha2C receptors): 43.5 nM
- Kb (human alpha2C receptors): 4.38 nM

SMILES: O=c1[nH]c2c(F)cccc2n1[C@H]1CCCN(C[C@H]2COc3ccccc3O2)C1 [example 154, 1-((S)-1-(((S)-2,3-Dihydrobenzo[b][1,4]dioxin-2-yl)methyl)piperidin-3-yl)-4-fluoro-1H-benzo[d]imidazol-2(3H)-one]
- IC50 (human alpha2A receptors): > 10000 nM
- Kb (human alpha2A receptors): > 449 nM
- IC50 (human alpha2C receptors): < 0.1 nM
- Kb (human alpha2C receptors): < 0.01 nM

SMILES: O=C1C(=O)N([C@H]2CCCN(C[C@H]3COc4ccccc4O3)C2)C(=O)N1Cc1cccnc1 [example 143, 1-((S)-1-(((S)-2,3-Dihydrobenzo[b][1,4]dioxin-2-yl)methyl)piperidin-3-yl)-3-(pyridin-3-ylmethyl)imidazolidine-2,4,5-trione]
- IC50 (human alpha2A receptors): > 10000 nM
- Kb (human alpha2A receptors): > 449 nM
- IC50 (human alpha2C receptors): 1.38 nM
- Kb (human alpha2C receptors): 0.14 nM

SMILES: O=C1NC(c2ccccc2)(c2ccccc2)CN1[C@H]1CCCN(C[C@H]2COc3ccccc3O2)C1 [example 2, 1-((S)-1-(((S)-2,3-Dihydrobenzo[b][1,4]dioxin-2-yl)methyl)piperidin-3-yl)-4,4-diphenylimidazolidin-2-one]
- IC50 (human alpha2A receptors): 1330 nM
- Kb (human alpha2A receptors): 60 nM
- IC50 (human alpha2C receptors): < 0.1 nM
- Kb (human alpha2C receptors): < 0.01 nM

SMILES: CC1(C)CC(=O)N([C@H]2CCCN(C[C@H]3COc4ccccc4O3)C2)C1 [example 1, 1-((S)-1-(((S)-2,3-Dihydrobenzo[b][1,4]dioxin-2-yl)methyl)piperidin-3-yl)-4,4-dimethylpyrrolidin-2-one]
- IC50 (human alpha2A receptors): > 10000 nM
- Kb (human alpha2A receptors): > 449 nM
- IC50 (human alpha2C receptors): 0.32 nM
- Kb (human alpha2C receptors): 0.03 nM

SMILES: CC1CCN([C@H]2CCCN(C[C@H]3COc4ccccc4O3)C2)C1=O (single isomer, unassigned; diastereomer 1) [example 98]
- IC50 (human alpha2A receptors): > 10000 nM
- Kb (human alpha2A receptors): > 449 nM
- IC50 (human alpha2C receptors): 9.26 nM
- Kb (human alpha2C receptors): 0.93 nM

SMILES: CN(C)C(=O)CN1CC(=O)N([C@H]2CCCN(C[C@H]3COc4ccccc4O3)C2)C1=O [example 109, 2-(3-((S)-1-(((S)-2,3-Dihydrobenzo[b][1,4]dioxin-2-yl)methyl)piperidin-3-yl)-2,4-dioxoimidazolidin-1-yl)-N,N-dimethylacetamide]
- IC50 (human alpha2A receptors): > 10000 nM
- Kb (human alpha2A receptors): > 449 nM
- IC50 (human alpha2C receptors): 0.117 nM
- Kb (human alpha2C receptors): 0.014 nM

SMILES: O=C1c2cncnc2CN1[C@H]1CCCN(C[C@H]2COc3ccccc3O2)C1 [example 23, 6-((S)-1-(((S)-2,3-Dihydrobenzo[b][1,4]dioxin-2-yl)methyl)piperidin-3-yl)-6,7-dihydro-5H-pyrrolo[3,4-d]pyrimidin-5-one]
- IC50 (human alpha2A receptors): > 10000 nM
- Kb (human alpha2A receptors): > 449 nM
- IC50 (human alpha2C receptors): 18 nM
- Kb (human alpha2C receptors): 1.81 nM

SMILES: c1ccc2c(c1)OC[C@H](CN1CCC[C@H](n3cnc4cncnc43)C1)O2 [example 161, 9-((S)-1-(((S)-2,3-Dihydrobenzo[b][1,4]dioxin-2-yl)methyl)-piperidin-3-yl)-9H-purine]
- IC50 (human alpha2A receptors): > 10000 nM
- Kb (human alpha2A receptors): > 449 nM
- IC50 (human alpha2C receptors): 0.294 nM
- Kb (human alpha2C receptors): 0.03 nM

SMILES: O=C1Cc2ccccc2N1[C@H]1CCCN(C[C@H]2COc3ccccc3O2)C1 [example 26, 1-((S)-1-(((S)-2,3-Dihydrobenzo[b][1,4]dioxin-2-yl)methyl)piperidin-3-yl)indolin-2-one]
- IC50 (human alpha2A receptors): > 10000 nM
- Kb (human alpha2A receptors): > 449 nM
- IC50 (human alpha2C receptors): 27.9 nM
- Kb (human alpha2C receptors): 2.81 nM

SMILES: CCN1CC(=O)N([C@H]2CCCN(C[C@H]3COc4ccccc4O3)C2)C1=O [example 105, 3-((S)-1-(((S)-2,3-Dihydrobenzo[b][1,4]dioxin-2-yl)methyl)-piperidin-3-yl)-1-ethylimidazolidine-2,4-dione]
- IC50 (human alpha2A receptors): > 10000 nM
- Kb (human alpha2A receptors): > 449 nM
- IC50 (human alpha2C receptors): 3.27 nM
- Kb (human alpha2C receptors): 0.33 nM

SMILES: O=C1C(=O)N([C@H]2CCCN(C[C@H]3COc4ccccc4O3)C2)C(=O)N1Cc1ccccn1 [example 142, 1-((S)-1-(((S)-2,3-Dihydrobenzo[b][1,4]dioxin-2-yl)methyl)piperidin-3-yl)-3-(pyridin-2-ylmethyl)imidazolidine-2,4,5-trione]
- IC50 (human alpha2A receptors): > 10000 nM
- Kb (human alpha2A receptors): > 449 nM
- IC50 (human alpha2C receptors): 0.846 nM
- Kb (human alpha2C receptors): 0.085 nM

SMILES: COCc1nc2ccccc2n1[C@H]1CCCN(C[C@H]2COc3ccccc3O2)C1 [example 151, 1-((S)-1-(((S)-2,3-Dihydrobenzo[b][1,4]dioxin-2-yl)methyl)piperidin-3-yl)-2-(methoxymethyl)-1H-benzo[d]imidazole]
- IC50 (human alpha2A receptors): 6160 nM
- Kb (human alpha2A receptors): 276 nM
- IC50 (human alpha2C receptors): < 0.1 nM
- Kb (human alpha2C receptors): < 0.01 nM

SMILES: CC1(C)CCN([C@H]2CCCN(C[C@H]3COc4ccccc4O3)C2)C1=O [example 100, 1-((S)-1-(((S)-2,3-Dihydrobenzo[b][1,4]dioxin-2-yl)methyl)piperidin-3-yl)-3,3-dimethylpyrrolidin-2-one]
- IC50 (human alpha2A receptors): > 10000 nM
- Kb (human alpha2A receptors): > 449 nM
- IC50 (human alpha2C receptors): 2.02 nM
- Kb (human alpha2C receptors): 0.203 nM

SMILES: CC(C)N1C(=O)N([C@H]2CCCN(C[C@H]3COc4ccccc4O3)C2)C[C@H]1c1ccccc1 [example 6, (R)-1-((S)-1-(((S)-2,3-Dihydrobenzo[b][1,4]dioxin-2-yl)methyl)-piperidin-3-yl)-3-isopropyl-4-phenylimidazolidin-2-one]
- IC50 (human alpha2A receptors): 9870 nM
- Kb (human alpha2A receptors): 443 nM
- IC50 (human alpha2C receptors): 672 nM
- Kb (human alpha2C receptors): 67.7 nM

SMILES: O=C1C=C(c2ccc(F)cc2)CN1[C@H]1CCCN(C[C@H]2COc3ccccc3O2)C1 [example 41, 1-((S)-1-(((S)-2,3-Dihydrobenzo[b][1,4]dioxin-2-yl)methyl)piperidin-3-yl)-4-(4-fluorophenyl)-1H-pyrrol-2(5H)-one]
- IC50 (human alpha2A receptors): > 10000 nM
- Kb (human alpha2A receptors): > 449 nM
- IC50 (human alpha2C receptors): 11.8 nM
- Kb (human alpha2C receptors): 1.19 nM

SMILES: CSc1ncc2c(n1)C(=O)N([C@H]1CCCN(C[C@H]3COc4ccccc4O3)C1)C2 [example 12, 6-((S)-1-(((S)-2,3-Dihydrobenzo[b][1,4]dioxin-2-yl)methyl)piperidin-3-yl)-2-(methylthio)-5H-pyrrolo[3,4-d]pyrimidin-7(6H)-one]
- IC50 (human alpha2A receptors): > 10000 nM
- Kb (human alpha2A receptors): > 449 nM
- IC50 (human alpha2C receptors): 509 nM
- Kb (human alpha2C receptors): 51.2 nM

SMILES: O=C1C(=O)N([C@H]2CCCN(C[C@H]3COc4ccccc4O3)C2)C(=O)N1c1ccccc1 [example 129, 1-((S)-1-(((S)-2,3-Dihydrobenzo[b][1,4]dioxin-2-yl)methyl)-piperidin-3-yl)-3-phenylimidazolidine-2,4,5-trione]
- IC50 (human alpha2A receptors): > 10000 nM
- Kb (human alpha2A receptors): > 449 nM
- IC50 (human alpha2C receptors): 1.58 nM
- Kb (human alpha2C receptors): 0.162 nM

SMILES: CCC1(c2ccccc2)C(=O)N([C@H]2CCCN(C[C@H]3COc4ccccc4O3)C2)C(=O)N1C (stereo partly drawn) [example 73, 3-((S)-1-(((S)-2,3-Dihydrobenzo[b][1,4]dioxin-2-yl)methyl)-piperidin-3-yl)-5-ethyl-1-methyl-5-phenylimidazolidine-2,4-dione]
- IC50 (human alpha2A receptors): 185 nM
- Kb (human alpha2A receptors): 8 nM
- IC50 (human alpha2C receptors): < 0.1 nM
- Kb (human alpha2C receptors): < 0.01 nM
